The results in this text go back to PubChem BioAssay (NCI).

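Five concentrations, 48 hours, 96-well plates. TGI denotes the concentration required for complete inhibition of growth.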 Bounds are passed on as bounds.

The first assay relates to IGROV1 ovarian. In words: NCI-60 cell line screen, 48 h.
Regarding `C1CSCCSCCCS[C@@H]2CCCCC2SC1` (stereo not given in full), the TGI was > 100 µM.
Regarding `CCOC(=O)c1cn(CC)c(=O)n2c1nc1ccccc12`, the TGI is > 100 µM.
The same measure, in the same setting: the same measure for `NNc1nnc(CCCCCCCCc2nnc(NN)n2N)n1N`: > 100 µM; for `COc1ccc(-c2oc3cc(-c4cc5oc(-c6ccc(OC)cc6)c(-c6ccc(OC)cc6)c5cc4OC)c(OC)cc3c2-c2ccc(OC)cc2)cc1`: > 100 µM; for `O=C(NCCC1CNc2ccccc21)OCc1ccccc1` (stereo not given): > 100 µM.
The compound `CCN1/C(=C/C#C/C(C)=C\c2sc3ccc(Cl)cc3[n+]2CC)Sc2ccc(Cl)cc21` registered a TGI of 14.5 µM.
Same read-out and setting: as for `c1cc(-c2ccc(-c3ccsc3)s2)cs1`, the figure is > 100 µM.
The same measure, in the same setting: the same measure for `CC(=O)c1ccc(N=NN2CCCC2)cc1`: > 100 µM; for `O=C1c2ccccc2N2OC3(N4CCOCC4)CCCC3C12c1ccccc1` (stereo not given): > 100 µM; for `Cn1c(CNc2ccc(-c3n[nH]c(=S)n3C)cc2)n[nH]c1=S`: > 100 µM.
The same measure, in the same setting: the same measure for `COc1cc(C2c3cc4c(cc3OC(NN)C2C)OCO4)cc(OC)c1O` (stereo not given): > 100 µM; for `COC(=O)[C@@]12OC[C@]34C([C@@H](O)C1O)[C@@]1(C)CC(=O)C(OC(=O)CC(C)C(F)(F)F)=C(C)C1C[C@H]3OC(=O)[C@H](O)[C@H]42` (stereo not given in full): 45.5 µM.
Turning to `CC(N)(CC(O)(C(F)(F)Cl)C(F)(F)Cl)C(=O)O` (stereo not given), the TGI is > 10 µM.
Same read-out and setting: the same measure for `NC1=NC2(COC(c3ccccc3)(c3ccccc3)c3ccccc3)OC(COC(c3ccccc3)(c3ccccc3)c3ccccc3)C(O)C2O1` (stereo not given): > 100 µM.
In turn, `O=C(O)CCCc1ccc2c(c1)CC1(C2)Cc2cc3c(cc2C1)CCCC3` yielded a TGI of 41.4 µM.
The same measure, in the same setting: the same measure for `CCOC(=O)C1(C/C=C\CBr)CCCC1=O` (stereo not given): > 100 µM; for `COc1ccc(OC)c2sc(N3C(=O)/C(=C/c4cccc(Oc5ccccc5)c4)N=C3c3ccccc3)nc12`: > 100 µM.
Turning to `Cc1cc(O)c(/C=N/C(N)=S)c(=O)o1`, the TGI was > 100 µM.
Still for that read-out and setting: as for `Cc1[nH]n(-c2nc3c(c(=O)[nH]2)CCCC3)c(=O)c1CCO`, the figure is > 100 µM; as for `O=c1c(-c2ccccc2)nnc2n(Cc3ccccc3)c3ccccc3n12`, > 100 µM.
Same read-out and setting: the same measure for `Cc1cc2nc3c(C#N)c(-c4ccccc4)/c(=C\Nc4ccc(F)cc4)c(=O)n3c2cc1C`: > 100 µM; for `O=C(c1ccccc1)C1(Br)S(=O)(=O)OCCOS1(=O)=O`: > 100 µM; for `C1CCC(N=C2N(C3CCCCC3)C(=NC3CCCCC3)N2C2CCCCC2)CC1`: > 100 µM.
Still for that read-out and setting: the same measure for `O=S(=O)(/N=C(\NO)Nc1ccc(Cl)cc1)c1cc(C(F)(F)F)cc(C(F)(F)F)c1`: 31.6 µM.

The subject of a further assay is MDA-MB-231 breast. Kind of assay: NCI-60 cell line screen, 48 h.
Regarding `CCOC(=O)c1cn(CC)c(=O)n2c1nc1ccccc12`, the TGI is > 100 µM.
The same measure, in the same setting: the same measure for `NNc1nnc(CCCCCCCCc2nnc(NN)n2N)n1N`: > 100 µM; for `COc1ccc(-c2oc3cc(-c4cc5oc(-c6ccc(OC)cc6)c(-c6ccc(OC)cc6)c5cc4OC)c(OC)cc3c2-c2ccc(OC)cc2)cc1`: > 100 µM; for `O=C(NCCC1CNc2ccccc21)OCc1ccccc1` (stereo not given): > 100 µM.
On the same count and under the same terms, as for `CCN1/C(=C/C#C/C(C)=C\c2sc3ccc(Cl)cc3[n+]2CC)Sc2ccc(Cl)cc21`, the figure is 19.7 µM.
Turning to `CC(=O)c1ccc(N=NN2CCCC2)cc1`, the TGI was > 100 µM.
For the compound `CSc1nncc(-c2cc3c(c(SC)n2)CCCC3)n1`, the TGI was > 100 µM.
The same measure, in the same setting: as for `Cn1c(CNc2ccc(-c3n[nH]c(=S)n3C)cc2)n[nH]c1=S`, the figure is > 100 µM; as for `COc1cc(C2c3cc4c(cc3OC(NN)C2C)OCO4)cc(OC)c1O` (stereo not given), 84.9 µM.
With `CC(N)(CC(O)(C(F)(F)Cl)C(F)(F)Cl)C(=O)O` (stereo not given), the TGI was > 10 µM.
Consider `NC1=NC2(COC(c3ccccc3)(c3ccccc3)c3ccccc3)OC(COC(c3ccccc3)(c3ccccc3)c3ccccc3)C(O)C2O1` (stereo not given), for which the TGI was > 100 µM.
Regarding `CC1(C)O[C@@H]2[C@@H](COC(C)(C)O[C@H]2C2SCCCS2)O1`, the TGI was > 100 µM.
The compound `CCOC(=O)C1(C/C=C\CBr)CCCC1=O` (stereo not given) yielded a TGI of 84 µM.
On the same count and under the same terms, the same measure for `COc1ccc(OC)c2sc(N3C(=O)/C(=C/c4cccc(Oc5ccccc5)c4)N=C3c3ccccc3)nc12`: > 100 µM.
Still for that read-out and setting: as for `Cc1cc(O)c(/C=N/C(N)=S)c(=O)o1`, the figure is > 100 µM.
Still for that read-out and setting: as for `Cc1[nH]n(-c2nc3c(c(=O)[nH]2)CCCC3)c(=O)c1CCO`, the figure is > 100 µM.
With `O=c1c(-c2ccccc2)nnc2n(Cc3ccccc3)c3ccccc3n12`, the TGI is > 100 µM.
On the same count and under the same terms, as for `Cc1cc2nc3c(C#N)c(-c4ccccc4)/c(=C\Nc4ccc(F)cc4)c(=O)n3c2cc1C`, the figure is > 100 µM; as for `O=S(=O)(/N=C(\NO)Nc1ccc(Cl)cc1)c1cc(C(F)(F)F)cc(C(F)(F)F)c1`, 37.2 µM.

Another assay concerns NCI-H226 lung. In words: NCI-60 cell line screen, 48 h.
For the compound `C1CSCCSCCCS[C@@H]2CCCCC2SC1` (stereo not given in full), the TGI is > 100 µM.
Same read-out and setting: as for `CCOC(=O)c1cn(CC)c(=O)n2c1nc1ccccc12`, the figure is > 100 µM.
The same measure, in the same setting: as for `NNc1nnc(CCCCCCCCc2nnc(NN)n2N)n1N`, the figure is > 100 µM; as for `COc1ccc(-c2oc3cc(-c4cc5oc(-c6ccc(OC)cc6)c(-c6ccc(OC)cc6)c5cc4OC)c(OC)cc3c2-c2ccc(OC)cc2)cc1`, > 100 µM; as for `CCN1/C(=C/C#C/C(C)=C\c2sc3ccc(Cl)cc3[n+]2CC)Sc2ccc(Cl)cc21`, 21.9 µM.
`c1cc(-c2ccc(-c3ccsc3)s2)cs1` gave a TGI of 98.7 µM.
Still for that read-out and setting: the same measure for `CC(=O)c1ccc(N=NN2CCCC2)cc1`: > 100 µM.
Same read-out and setting: as for `CSc1nncc(-c2cc3c(c(SC)n2)CCCC3)n1`, the figure is > 100 µM; as for `O=C1c2ccccc2N2OC3(N4CCOCC4)CCCC3C12c1ccccc1` (stereo not given), > 100 µM.
On the same count and under the same terms, the same measure for `Cn1c(CNc2ccc(-c3n[nH]c(=S)n3C)cc2)n[nH]c1=S`: > 100 µM.
Take `COc1cc(C2c3cc4c(cc3OC(NN)C2C)OCO4)cc(OC)c1O` (stereo not given): the TGI turned out to be 62 µM.
Compound `COC(=O)[C@@]12OC[C@]34C([C@@H](O)C1O)[C@@]1(C)CC(=O)C(OC(=O)CC(C)C(F)(F)F)=C(C)C1C[C@H]3OC(=O)[C@H](O)[C@H]42` (stereo not given in full) had a TGI of 14.5 µM.
For the compound `CC(N)(CC(O)(C(F)(F)Cl)C(F)(F)Cl)C(=O)O` (stereo not given), the TGI was > 10 µM.
Still for that read-out and setting: the same measure for `NC1=NC2(COC(c3ccccc3)(c3ccccc3)c3ccccc3)OC(COC(c3ccccc3)(c3ccccc3)c3ccccc3)C(O)C2O1` (stereo not given): > 100 µM; for `O=C(O)CCCc1ccc2c(c1)CC1(C2)Cc2cc3c(cc2C1)CCCC3`: 61.8 µM; for `CCOC(=O)C1(C/C=C\CBr)CCCC1=O` (stereo not given): 88.6 µM.
Same read-out and setting: as for `Cc1cc(O)c(/C=N/C(N)=S)c(=O)o1`, the figure is > 100 µM; as for `Cc1[nH]n(-c2nc3c(c(=O)[nH]2)CCCC3)c(=O)c1CCO`, > 100 µM.
On the same count and under the same terms, as for `O=c1c(-c2ccccc2)nnc2n(Cc3ccccc3)c3ccccc3n12`, the figure is > 100 µM.
For the compound `Cc1cc2nc3c(C#N)c(-c4ccccc4)/c(=C\Nc4ccc(F)cc4)c(=O)n3c2cc1C`, the TGI was > 100 µM.
The same measure, in the same setting: as for `O=C(c1ccccc1)C1(Br)S(=O)(=O)OCCOS1(=O)=O`, the figure is > 100 µM.
In turn, `O=S(=O)(/N=C(\NO)Nc1ccc(Cl)cc1)c1cc(C(F)(F)F)cc(C(F)(F)F)c1` gave a TGI of 35.9 µM.
